Patent EP0019739A1, “2-Aminoalkyl-5-pyridinoles, process for their preparation and pharmaceutical preparations containing them” (CIBA-GEIGY AG, priority 1979, dated 1980)

Assay: Pharmacological activity, test not specified
Conditions: compared with the racemic dihydrochloride (starting material of Example 2) and the levorotatory salt

For `CC(C)NC(C)Cc1ccc(O)cn1.Cl.Cl` (stereo not shown) [rechtsdrehende Antipode, 2-(2-Isopropylaminopropyl)-5-pyridinol-dihydrochlorid], the pharmakologisch aktiv was “weniger aktiv”.
